These results are taken from patent publication US20230077362A1 (CORTEVA AGRISCIENCE LLC, priority 2019, published 2023).

Assay type in all cases: in vivo
The test system of test [1] is Beet Armyworm (Spodoptera exigua) ("BAW"), second instar larvae. Kind of test: Bioassay on beet armyworm (BAW), 128-well diet tray assay. To be noted: Spodoptera exigua. An outline of the steps:
(§1)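 Each value represents average percent mortality from eight wells. Larvae were kept in clear-covered trays at 25° C. for five to seven days on a 14-hour light, 10-hour dark schedule before scoring.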

The test system of test [2] is Cabbage Looper (Trichoplusia ni) ("CL"), second instar larvae. Kind of test: Bioassay on cabbage looper (CL), 128-well diet tray assay. The conditions noted are these: Trichoplusia ni. The method in brief:
as §1

For test [3], the system named is Green Peach Aphid ("GPA") (Myzus persicae), wingless adult and nymph stages. Kind of test: Bioassay on green peach aphid (GPA), foliar spray on infested cabbage seedlings. To be noted: Myzus persicae, foliar, 72 h. As to the method:
Certain molecules disclosed in this document were tested against GPA using procedures described in the following example. In the reporting of the results, the “GPA Rating Table” was used (See Table Section).
Cabbage seedlings grown in 3-inch pots, with 2-3 small (3-5 cm) true leaves, were used as test substrate. The seedlings were infested with 20-50 GPA (wingless adult and nymph stages) one day prior to chemical application. Four pots with individual seedlings were used for each treatment. Test compounds (2 mg) were dissolved in 2 mL of acetone/methanol (1:1) solvent, forming stock solutions of 1000 ppm test compound. […] A hand-held aspirator-type sprayer was used for spraying a solution to both sides of […] leaves until runoff. Reference plants (solvent check) were sprayed with the diluent only containing 20% by volume of acetone/methanol (1:1) solvent. Treated plants were held in a holding room for three days at approximately 25° C. and ambient relative humidity (RH) prior to grading. Evaluation was conducted by counting the number of live aphids per plant under a microscope.
Corrected % Control=100*(X−Y)/X • where • X=No. of live aphids on solvent check plants and • Y=No. of live aphids on treated plants
The results are indicated in the table entitled “Table ABC: Biological Results” (See Table Section).

Where [4] appears, read: read-out: BAW (Biological Results, rating).
[5] abbreviates: read-out: CL (Biological Results, rating).
Setting [6] is: read-out: GPA (Biological Results, rating).

Read-outs that look alike come from different tables or passages of the source.

Take `COc1ccc(-n2cnc(-c3ccc(NC(=O)/N=C4\SCC(=O)N4c4cc(N(C)C)ccc4C(C)C)c(F)c3)n2)cc1` [Compound J146, (Z)-1-(3-(5-(Dimethylamino)-2-isopropylphenyl)-4-oxothiazolidin-2-ylidene)-3-(2-fluoro-4-(1-(4-methoxyphenyl)-1H-1,2,4-triazol-3-yl)phenyl)urea]: the pest or weed control at 50 µg/cm2 in test [1] (setting [4]) and in test [2] (setting [5]) was 50 to 100% each time. Further, in test [3] (setting [6]), the pest or weed control at 200 µg/mL was in the range of 0 to 80%.
In the case of `Cc1ccc(C(C)C)c(N2C(=O)C(Cl)S/C2=N\C(=O)Nc2ccc(-c3ncn(-c4ccc(OC(F)(F)F)cc4)n3)cc2)c1` (stereo not drawn) [Compound J314, (Z)-1-(5-Chloro-3-(2-isopropyl-5-methylphenyl)-4-oxothiazolidin-2-ylidene)-3-(4-(1-(4-(trifluoromethoxy)phenyl)-1H-1,2,4-triazol-3-yl)phenyl)urea], the pest or weed control at 50 µg/cm2 in test [1] (setting [4]) and in test [2] (setting [5]) was 50 to 100% throughout. Besides, in test [3] (setting [6]), the pest or weed control at 200 µg/mL fell in the range of 0 to 80%.
`COC(c1ccc(C)cc1N1C(=O)CS/C1=N\C(=O)Nc1ccc(-c2ncn(-c3ccc(OC(F)(F)F)cc3)n2)cc1F)C(F)(F)F` (stereo not drawn) [Compound J181, (Z)-1-(2-Fluoro-4-(1-(4-(trifluoromethoxy)phenyl)-1H-1,2,4-triazol-3-yl)phenyl)-3-(3-(5-methyl-2-(2,2,2-trifluoro-1-methoxyethyl)phenyl)-4-oxothiazolidin-2-ylidene)urea]: the pest or weed control at 50 µg/cm2 in test [1] (setting [4]) and in test [2] (setting [5]) was 50 to 100% each time. The pest or weed control at 200 µg/mL in test [3] (setting [6]) is 0 to 80%.
As to `O=C(/N=C1\SCC(=O)N1c1ccccc1COCC(F)(F)F)Nc1ccc(-c2ncn(-c3ccc(OC(F)(F)F)cc3)n2)cc1F` [Compound J659, (Z)-1-(2-Fluoro-4-(1-(4-(trifluoromethoxy)phenyl)-1H-1,2,4-triazol-3-yl)phenyl)-3-(4-oxo-3-(2-((2,2,2-trifluoroethoxy)methyl)phenyl)thiazolidin-2-ylidene)urea], the pest or weed control at 50 µg/cm2 in test [1] (read-out: BAW rating) and in test [2] (read-out: CL rating) was 50 to 100% in each case. For the same compound, the pest or weed control at 200 µg/mL in test [3] (read-out: GPA rating) lay within 0 to 80%.
On to `CCCc1ccc(OCC)cc1N1C(=O)CS/C1=N\C(=O)Nc1ccc(-c2ncn(-c3ccc(OC(F)(F)F)cc3)n2)cc1F` [Compound J169, (Z)-1-(3-(5-Ethoxy-2-propylphenyl)-4-oxothiazolidin-2-ylidene)-3-(2-fluoro-4-(1-(4-(trifluoromethoxy)phenyl)-1H-1,2,4-triazol-3-yl)phenyl)urea], for which the pest or weed control at 50 µg/cm2 in test [1] (setting [4]) and in test [2] (setting [5]) was 50 to 100% throughout. Besides, the pest or weed control at 200 µg/mL in test [3] (setting [6]) lay within 0 to 80%.
As to `Cc1ccc(COCC(F)(F)F)c(N2C(=O)CS/C2=N\C(=O)Nc2ccc(-c3ncn(-c4ccc(OC(F)(F)F)cc4)n3)cc2C)c1` [Compound J139, (Z)-1-(3-(5-Methyl-2-((2,2,2-trifluoroethoxy)methyl)phenyl)-4-oxothiazolidin-2-ylidene)-3-(2-methyl-4-(1-(4-(trifluoromethoxy)phenyl)-1H-1,2,4-triazol-3-yl)phenyl)urea], the pest or weed control at 50 µg/cm2 in test [1] (setting [4]) and in test [2] (setting [5]) was 50 to 100% each time. The pest or weed control at 200 µg/mL in test [3] (setting [6]) is 0 to 80%.
`Cc1ccc(COCC(F)(F)F)c(N2C(=O)CS/C2=N\C(=O)Nc2ccc(-c3ncn(-c4ccc(OC(F)(F)F)cc4)n3)cc2F)c1` [Compound J123, (Z)-1-(2-fluoro-4-(1-(4-(trifluoromethoxy)phenyl)-1H-1,2,4-triazol-3-yl)phenyl)-3-(3-(5-methyl-2-((2,2,2-trifluoroethoxy)methyl)phenyl)-4-oxothiazolidin-2-ylidene)urea]: the pest or weed control at 50 µg/cm2 in test [1] (setting [4]) and in test [2] (setting [5]) was 50 to 100% throughout. Moreover, the pest or weed control at 200 µg/mL in test [3] (setting [6]) was 0 to 80%.
On to `CC(=O)c1ccc(C(C)C)c(N2C(=O)CS/C2=N\C(=O)Nc2ccc(-c3ncn(-c4ccc(OC(F)(F)F)cc4)n3)cc2F)c1` [Compound J77, (Z)-1-(3-(5-Acetyl-2-isopropylphenyl)-4-oxothiazolidin-2-ylidene)-3-(2-fluoro-4-(1-(4-(trifluoromethoxy)phenyl)-1H-1,2,4-triazol-3-yl)phenyl)urea], for which the pest or weed control at 50 µg/cm2 in test [1] (setting [4]) and in test [2] (setting [5]) was 50 to 100% in each case. In addition, the pest or weed control at 200 µg/mL in test [3] (setting [6]) lay in the range of 0 to 80%.
Take `Cc1ccc(OCC(F)(F)F)c(N2C(=O)CS/C2=N\C(=O)Nc2ccc(-c3ncn(-c4ccc(SC(F)(F)F)cc4)n3)cc2F)c1` [Compound J223, (Z)-1-(2-Fluoro-4-(1-(4-((trifluoromethyl)thio)phenyl)-1H-1,2,4-triazol-3-yl)phenyl)-3-(3-(5-methyl-2-(2,2,2-trifluoroethoxy)phenyl)-4-oxothiazolidin-2-ylidene)urea]: the pest or weed control at 50 µg/cm2 in test [1] (setting [4]) and in test [2] (setting [5]) was 50 to 100% in each case. Besides, the pest or weed control at 200 µg/mL in test [3] (setting [6]) was 0 to 80%.
Turning to `Cc1ccc(COCC(F)(F)F)c(N2C(=O)CS/C2=N\C(=O)Nc2ccc(-c3ncn(-c4ccc(C#N)cc4)n3)cc2F)c1` [Compound J289, (Z)-1-(4-(1-(4-Cyanophenyl)-1H-1,2,4-triazol-3-yl)-2-fluorophenyl)-3-(3-(5-methyl-2-((2,2,2-trifluoroethoxy)methyl)phenyl)-4-oxothiazolidin-2-ylidene)urea], the pest or weed control at 50 µg/cm2 in test [1] (setting [4]) and in test [2] (setting [5]) was 50 to 100% each time. Moreover, the pest or weed control at 200 µg/mL in test [3] (setting [6]) lay within 0 to 80%.
In the case of `Cc1ccc(C(C)C)c(N2C(=O)CS/C2=N\C(=O)Nc2ccc(-c3ncn(-c4ccc(OC(F)(F)F)cc4)n3)cc2F)c1` [Compound J19, (Z)-1-(2-Fluoro-4-(1-(4-(trifluoromethoxy)phenyl)-1H-1,2,4-triazol-3-yl)phenyl)-3-(3-(2-isopropyl-5-methylphenyl)-4-oxothiazolidin-2-ylidene)urea], the pest or weed control at 50 µg/cm2 in test [1] (setting [4]) and in test [2] (setting [5]) was 50 to 100% throughout. For the same compound, the pest or weed control at 200 µg/mL in test [3] (setting [6]) lay in the range of 0 to 80%.
Regarding `CCNc1ccc(C(C)C)c(N2C(=O)CS/C2=N\C(=O)Nc2ccc(-c3ncn(-c4ccc(OC(F)(F)F)cc4)n3)cc2C)c1` [Compound J127, (Z)-1-(3-(5-(Ethylamino)-2-isopropylphenyl)-4-oxothiazolidin-2-ylidene)-3-(2-methyl-4-(1-(4-(trifluoromethoxy)phenyl)-1H-1,2,4-triazol-3-yl)phenyl)urea], the pest or weed control at 50 µg/cm2 in test [1] (setting [4]) and in test [2] (setting [5]) was 50 to 100% each time. In test [3] (setting [6]), the pest or weed control at 200 µg/mL lay in the range of 0 to 80%.
For `COc1ccc(C(C)C)c(N2C(=O)CS/C2=N\C(=O)Nc2ccc(-c3ncn(-c4cccc(C(F)(F)F)c4)n3)cc2)c1` [Compound J324, (Z)-1-(3-(2-Isopropyl-5-methoxyphenyl)-4-oxothiazolidin-2-ylidene)-3-(4-(1-(3-(trifluoromethyl)phenyl)-1H-1,2,4-triazol-3-yl)phenyl)urea], the pest or weed control at 50 µg/cm2 in test [1] (setting [4]) and in test [2] (setting [5]) was 50 to 100% throughout. Moreover, in test [3] (setting [6]), the pest or weed control at 200 µg/mL lay in the range of 0 to 80%.
Take `COC(C)c1ccc(C)cc1N1C(=O)CS/C1=N\C(=O)Nc1ccc(-c2ncn(-c3cccc(C(F)(F)F)c3)n2)cc1F` (stereo not drawn) [Compound J119, (Z)-1-(2-Fluoro-4-(1-(3-(trifluoromethyl)phenyl)-1H-1,2,4-triazol-3-yl)phenyl)-3-(3-(2-(1-methoxyethyl)-5-methylphenyl)-4-oxothiazolidin-2-ylidene)urea]: the pest or weed control at 50 µg/cm2 in test [1] (setting [4]) and in test [2] (setting [5]) was 50 to 100% each time. The pest or weed control at 200 µg/mL in test [3] (setting [6]) was 0 to 80%.
`COC(C)c1ccc(C)cc1N1C(=O)CS/C1=N\C(=O)Nc1ccc(-c2ncn(-c3cccc(OC(F)(F)F)c3)n2)cc1F` (stereo not drawn) [Compound J120, (Z)-1-(2-Fluoro-4-(1-(3-(trifluoromethoxy)phenyl)-1H-1,2,4-triazol-3-yl)phenyl)-3-(3-(2-(1-methoxyethyl)-5-methylphenyl)-4-oxothiazolidin-2-ylidene)urea]: the pest or weed control at 50 µg/cm2 in test [1] (setting [4]) and in test [2] (setting [5]) was 50 to 100% each time. Further, the pest or weed control at 200 µg/mL in test [3] (setting [6]) was in the range of 0 to 80%.
On to `CC(C)c1ccc(N(C)C)cc1N1C(=O)CS/C1=N\C(=O)Nc1ccc(-c2ncn(-c3cccc(C(F)(F)F)c3)n2)cc1F` [Compound J153, (Z)-1-(3-(5-(Dimethylamino)-2-isopropylphenyl)-4-oxothiazolidin-2-ylidene)-3-(2-fluoro-4-(1-(3-(trifluoromethyl)phenyl)-1H-1,2,4-triazol-3-yl)phenyl)urea], for which the pest or weed control at 50 µg/cm2 in test [1] (setting [4]) and in test [2] (setting [5]) was 50 to 100% throughout. Moreover, in test [3] (setting [6]), the pest or weed control at 200 µg/mL fell in the range of 0 to 80%.
